How the values were obtained:
[1] = test system: add riboswitch aptamer (RNA, riboswitch) CAACGCUUCAUAUAAUCCUAAUGAUAUGGUUUGGGAGUUUCUACCAAGAGCCUUAAACUCUUGAUUAUGAAGUCUGUCGCUUUAUCC; experiment: ACE-Scan microarray, ligand-induced duplex dissociation; details: 130 mM KCl, 12 mM MgCl2; 50 mM Tris, pH 7.5, 23 °C; 4 mM adenine; array-bound ACEs displaced; weaker at lower Mg2+ or 10 °C
[2] = test system: ATP RNA aptamer (RNA, aptamer) CUUGGGUUGGGAAGAAACUGUGGCACUUCGGUGCCAGCAACCCCAU; experiment: as above; details: 300 mM NaCl, 5 mM MgCl2; 20 mM Tris, pH 7.6, room temperature; 10 mM ATP; array-bound ACEs displaced
[3] = test system: ATP DNA aptamer (with 5' extension) (DNA, aptamer) TCACTGACCTGGGGGAGTATTGCGGAGGAAGGT; experiment: solution FRET dose-response, quencher strand displacement; details: 300 mM NaCl, 5 mM MgCl2; 20 mM Tris, pH 8.3, 0.1% Tween-20, 22.5 °C; BHQ-2 ACEs 5'Q-2T:9, 5'Q4T:10, 5'Q4T:12:6G, 5'Q1A:15, 5'Q-5C:9 displaced

Row | Compound | binding [1] | binding [2] | binding [3]
1 | Nc1ncnc2[nH]cnc12 | yes | – | –
2 | Nc1ncnc2c1ncn2[C@@H]1O[C@H](COP(=O)(O)OP(=O)(O)OP(=O)(O)O)[C@@H](O)[C@H]1O | – | yes | yes
